ChEMBL document CHEMBL4483862, “Open-source discovery of chemical leads for next-generation chemoprotective antimalarials” (2018)

System: Plasmodium berghei
Experiment: Luciferase/luciferin-expressing antifolate-resistant parasites were used to infect a culture of HepG2 cells that were pre-incubated with compounds. Infected hepatocytes emit light due to the luciferase reaction. Assay results are presented as the percent inhibition of light emission compared to control. […]
Assay type: functional
Conditions: sporozoite; for IC50: read-out: LUCIFERASE INFECTION ASSAY - IC50; for IC90: read-out: LUCIFERASE INFECTION ASSAY - IC90

Row | Structure (SMILES) | IC50 [µM] | IC90 [µM]
1 | Cc1c(Cl)cccc1N=C(NS(=O)(=O)c1cccs1)c1ccccc1 | > 10 | > 10
2 | O=C(OCN1C(=O)c2ccccc2C1=O)c1ccc(OCC2CCCO2)cc1 (stereo not drawn) | > 10 | > 10
3 | Cc1nnc(NC(=O)CN2CCC(c3nc4ccccc4o3)CC2)s1 | > 10 | > 10
4 | CN(Cc1ccsc1)c1nc(C(F)(F)F)nc2ccccc12 | > 10 | > 10
5 | CCN1C(c2ccc(C)cc2)=CS/C1=C(/C#N)c1nnc2n1CCCCC2 | > 10 | > 10
6 | CN(Cc1nccn1C(F)F)c1ncnc2sccc12 | > 10 | > 10
7 | O=C(CC1(C(F)(F)F)OCCO1)Nc1ccc(C(OC(=O)c2ccc(F)cc2)(C(F)(F)F)C(F)(F)F)cc1 | > 10 | > 10
8 | C=CCNC(=O)CN(C)S(=O)(=O)c1ccc2c(c1)OCCCO2 | > 10 | > 10
9 | CC(OC(=O)c1cccnc1N)C(=O)Nc1ccc2ccccc2c1 (stereo not drawn) | > 10 | > 10
10 | Cc1cc(N2CCN(c3nc(C)cc(C)c3C#N)CC2)nc(C(C)C)n1 | > 10 | > 10
11 | CCN(CC)S(=O)(=O)c1ccc(C(=O)Nc2ccc(C34CC5CC(CC(O)(C5)C3)C4)cc2)cc1 | > 10 | > 10
12 | Cc1cccc(NC(=O)CNC(=O)c2ccc3c(c2)C(=O)N(C)C3=O)c1C | > 10 | > 10
13 | Cc1nc2ccccc2c(C)c1CC(=O)NCc1coc(-c2cccs2)n1 | > 10 | > 10
14 | CCc1ccc(-c2nc(Cn3cnc4ccccc4c3=O)cs2)cc1 | > 10 | > 10
15 | O=C(c1ccc(=O)[nH]c1)N1CCN(Cc2nc(=O)c3ccccc3[nH]2)CC1 | > 10 | > 10
16 | CC(c1ccc(S(C)(=O)=O)cc1)N(C)S(=O)(=O)c1ccccc1F (stereo not drawn) | > 10 | > 10
17 | Cc1cc(C(=O)CSc2nnc(C3CC3)[nH]2)c(C)n1CCC1=CCCCC1 | > 10 | > 10
18 | CC1CCc2sc(C(=O)Nc3cccc4c3C(=O)NC4)cc2C1 (stereo not drawn) | 3.61 | 4.22
19 | NC(=O)C1CCN(c2nc(-c3cccs3)nc3sc4c(c23)CCCC4)CC1 | > 10 | > 10
20 | Cc1cccc(C(=O)NC(C(=O)Nc2ccn(C)n2)C(C)C)c1 (stereo not drawn) | > 10 | > 10
21 | Cc1ccc(C(=O)NCCSc2ccc(Cl)cc2)o1 | > 10 | > 10
22 | COc1ccccc1CNC(=O)CN1CCN(c2cc(C)nc(C(C)C)n2)CC1 | > 10 | > 10

Row | Structure (SMILES) | IC50 [µM] | IC90 [µM]
23 | CNc1snc(C)c1C(=O)NC(C)c1ccc(OC(F)F)cc1 (stereo not drawn) | 8.84 | 9.96
24 | COC(=O)c1ccc(C)c(NC(=O)CCc2ccc3c(c2)OCCO3)c1 | > 10 | > 10
25 | N#C/C(=C\c1sc(N2CCCCC2)nc1-c1ccccc1)c1nnc2n1CCCCC2 | > 10 | > 10
26 | CCN(CC)S(=O)(=O)c1cccc(NC(=O)C23CC4CC(C2)CC(c2ccc(C)cc2)(C4)C3)c1 | > 10 | > 10
27 | Oc1ccc(CNC(c2ccc3c(c2)CCC3)c2cccs2)cc1 (stereo not drawn) | > 10 | > 10
28 | CCOC(/C=C1\Sc2c(ccc3c2CCCC3)N1CC)=C1/SC(=S)N(CC)C1=O | > 10 | > 10
29 | CCOc1cccc(C(=O)Nc2c(C)cc(Br)cc2C)c1 | > 9.48 | > 9.48
30 | CC(c1cc2ccccc2o1)N(C)C(=O)Cc1ccccc1F (stereo not drawn) | > 10 | > 10
31 | O=C(Cc1ccccc1)NCC(=O)N1CCOC(c2ccccc2)C1 (stereo not drawn) | > 10 | > 10
32 | Cc1nc(SCC(=O)N(C)Cc2cnn(Cc3ccccc3)c2)c2c(C)c(C)sc2n1 | > 10 | > 10
33 | CC(C)CNC(=O)c1cc(Br)ccc1O | > 10 | > 10
34 | Cc1cc2ncn(CC(O)CN3CCOCC3)c2cc1C (stereo not drawn) | > 10 | > 10
35 | Cc1nc(Sc2ncnc3scc(-c4ccc(F)cc4)c23)oc1C | > 10 | > 10
36 | CC(C)c1ccc(C(=O)N2CC(C(=O)N3CCOCC3)Oc3ccccc32)cc1 (stereo not drawn) | > 10 | > 10
37 | O=C(CCc1ncc(-c2ccccc2)o1)Nc1ncccc1O | > 10 | > 10
38 | CCN(CC(=O)Nc1cccc(OC)c1)C(=O)C1Cc2ccccc2O1 (stereo not drawn) | > 10 | > 10
39 | CCCc1ccc(C(NC(=O)Cn2ccc(=O)[nH]c2=O)c2cccs2)cc1 (stereo not drawn) | > 10 | > 10
40 | O=C(Nc1ccccc1SCc1ccsc1)C1CCCCC1 | > 10 | > 10
41 | O=c1[nH]c2ccccc2c(=O)n1CC1(N2CCCCC2)CCCCC1 | > 10 | > 10
42 | O=C(Nc1cccc(SC(F)(F)C(F)(F)C(F)(F)F)c1)C1(S(=O)(=O)c2ccccc2)CC1 | > 10 | > 10
43 | CC(NC(=O)NCc1ccccc1)c1ccc2ccccc2c1 (stereo not drawn) | > 10 | > 10
44 | O=C1CN(C(=O)Cc2ccc3c(c2)CCO3)c2ccccc2N1 | > 10 | > 10

Row | Structure (SMILES) | IC50 [µM] | IC90 [µM]
45 | Clc1ccc(OC2OCCOC2Oc2ccc(Cl)cc2Cc2ccccc2)c(Cc2ccccc2)c1 (stereo not drawn) | > 10 | > 10
46 | CCOc1ccc2nc(SCC(=O)N3Cc4ccccc4CC3C(=O)O)sc2c1 (stereo not drawn) | > 10 | > 10
47 | Cc1ccc(S(=O)(=O)Nc2ccc(C(=O)Nc3ncccc3O)cc2)cc1C | 7.38 | > 10
48 | NC(=O)c1cc(Cl)ccc1OCc1ccc(OC(F)(F)F)cc1 | > 10 | > 10
49 | CCC(C)(C)NC(=O)CSC(c1ccc(F)cc1)c1ccc(F)cc1 | > 10 | > 10
50 | Cc1ccc(-c2nc(C(=O)N3CCCc4ccccc43)cs2)cc1 | 2.91 | > 10
51 | CNC(=O)c1ccc(CN(Cc2ccco2)Cc2cccc3cccnc23)cc1 | > 10 | > 10
52 | COc1ccc(C(=O)C2CCN(c3nn4cc(C(C)(C)C)nc4s3)CC2)cc1 | 3.34 | 4.16
53 | Cc1ccc(Oc2ccc(OCC(=O)NC3CCN(C(C)C)CC3)cc2)cc1 | > 10 | > 10
54 | O=C(c1nn(-c2ccccc2)c2c1CCC2)N1CCn2c1nc1ccccc12 | > 10 | > 10
55 | C=CCNS(=O)(=O)c1ccc(C(=O)NCc2ccccc2OC(F)F)cc1 | > 10 | > 10
56 | CCCn1nc(C(=O)N2CC(C)CC(C)C2)ccc1=O (stereo not drawn) | > 10 | > 10
57 | CCn1c(SCC(=O)NC(=O)NCc2cccs2)nnc1C1CC1 | > 10 | > 10
58 | Cc1nccn1Cc1cccc(CNS(=O)(=O)c2ccc3ccccc3c2)c1 | > 10 | > 10
59 | Cc1cc(C)c2c(C)c(C(=O)Nc3nc4ccccc4s3)sc2n1 | 0.841 | 1.17
60 | CCOc1ncccc1C(=O)Nc1ccc(NC(=O)C2CC2)cc1C(F)(F)F | > 10 | > 10
61 | Cc1nnc(SCCCc2nc(-c3ccncc3)no2)n1Cc1ccccc1 | > 10 | > 10
62 | O=C1CC2(CCCC2)C(=O)N1CC(O)c1ccccc1 (stereo not drawn) | > 10 | > 10
63 | N#Cc1ccc(OCC(=O)c2ccc(OC(F)F)cc2OC(F)F)cc1 | > 10 | > 10
64 | CCc1cccc2c(C3=CCN(c4ncccn4)CC3)c[nH]c12 | > 10 | > 10
